Measurements taken from ChEMBL document CHEMBL5465560, “Selectivity Literature for EUbOPEN Chemogenomic Library” (2024).

Key:
[1] = target: Histone-lysine N-methyltransferase KMT5B (Homo sapiens) (UniProt Q4FZB7); experiment: Selectivity interaction (Methyltransferase screen (Scintillation proximity assays)) EUB0000255b SUV420H1
[2] = target: T1, Serine/threonine-protein kinase Sgk2 (Homo sapiens) (UniProt Q9HBY8); experiment: Selectivity interaction (KinomeScan (DiscoverX)) EUB0000229b SGK2; details: at 10 µM
T1 sequence (whole entry): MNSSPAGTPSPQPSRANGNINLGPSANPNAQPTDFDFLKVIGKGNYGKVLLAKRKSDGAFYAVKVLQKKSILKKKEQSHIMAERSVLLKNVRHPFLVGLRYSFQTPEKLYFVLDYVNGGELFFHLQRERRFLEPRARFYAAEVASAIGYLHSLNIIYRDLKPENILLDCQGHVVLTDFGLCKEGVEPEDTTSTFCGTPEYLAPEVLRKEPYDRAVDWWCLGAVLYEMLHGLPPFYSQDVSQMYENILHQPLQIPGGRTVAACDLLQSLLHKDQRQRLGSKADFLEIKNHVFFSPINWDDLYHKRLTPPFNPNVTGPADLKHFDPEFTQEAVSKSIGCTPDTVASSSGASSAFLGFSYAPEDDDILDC

[3] = target: Tyrosine-protein kinase HCK (Homo sapiens) (UniProt P08631); experiment: Selectivity interaction (KinomeScan (DiscoverX)) EUB0000092b HCK; details: at 10 µM
Sequence of Tyrosine-protein kinase HCK (Homo sapiens) (P08631 2-526 limits assumed): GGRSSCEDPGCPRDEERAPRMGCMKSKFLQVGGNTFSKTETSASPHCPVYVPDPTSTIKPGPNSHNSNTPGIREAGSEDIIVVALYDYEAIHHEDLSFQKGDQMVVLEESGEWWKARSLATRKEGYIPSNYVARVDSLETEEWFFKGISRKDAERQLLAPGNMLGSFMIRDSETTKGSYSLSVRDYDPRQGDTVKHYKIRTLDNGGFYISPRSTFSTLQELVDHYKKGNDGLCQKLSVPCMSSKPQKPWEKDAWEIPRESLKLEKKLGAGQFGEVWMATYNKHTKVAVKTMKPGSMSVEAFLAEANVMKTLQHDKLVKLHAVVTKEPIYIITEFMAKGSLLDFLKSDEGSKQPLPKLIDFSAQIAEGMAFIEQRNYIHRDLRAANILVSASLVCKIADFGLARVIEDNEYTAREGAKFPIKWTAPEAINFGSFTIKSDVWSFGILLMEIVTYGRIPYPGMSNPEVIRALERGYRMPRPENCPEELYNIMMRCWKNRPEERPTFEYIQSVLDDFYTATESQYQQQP

[4] = target: CDK7/Cyclin H/MNAT1 (Homo sapiens) (UniProt P51946+P50613+P51948); experiment: Selectivity interaction (ProQinase) EUB0000171b CDK7; format: protein-complex assay
[5] = target: Phosphatidylinositol 4-phosphate 5-kinase type-1 alpha (Homo sapiens) (UniProt Q99755); experiment: Selectivity interaction (KinomeScan (DiscoverX)) EUB0000666a PIP5K1A; details: at 10 µM
Sequence of Phosphatidylinositol 4-phosphate 5-kinase type-1 alpha (Homo sapiens) (Q99755 whole entry): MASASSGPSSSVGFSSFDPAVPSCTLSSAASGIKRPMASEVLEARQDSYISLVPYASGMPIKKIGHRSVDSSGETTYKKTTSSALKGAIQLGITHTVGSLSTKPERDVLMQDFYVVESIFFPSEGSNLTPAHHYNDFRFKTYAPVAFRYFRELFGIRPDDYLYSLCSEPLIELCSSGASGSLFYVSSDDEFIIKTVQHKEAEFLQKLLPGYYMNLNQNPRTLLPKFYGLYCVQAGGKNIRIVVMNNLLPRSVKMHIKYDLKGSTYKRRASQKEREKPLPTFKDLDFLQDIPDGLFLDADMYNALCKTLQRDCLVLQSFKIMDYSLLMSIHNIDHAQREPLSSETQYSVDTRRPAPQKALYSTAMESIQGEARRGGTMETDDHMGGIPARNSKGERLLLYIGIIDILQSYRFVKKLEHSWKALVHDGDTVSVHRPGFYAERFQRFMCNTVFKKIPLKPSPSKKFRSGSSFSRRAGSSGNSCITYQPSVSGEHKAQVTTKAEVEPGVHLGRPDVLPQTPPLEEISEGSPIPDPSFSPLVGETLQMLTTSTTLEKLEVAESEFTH

[6] = target: RAC-gamma serine/threonine-protein kinase (Homo sapiens, UniProt Q9Y243); experiment: Selectivity interaction (KinomeScan (DiscoverX)) EUB0000595a AKT3; details: at 10 µM
Sequence of RAC-gamma serine/threonine-protein kinase (Q9Y243 whole entry): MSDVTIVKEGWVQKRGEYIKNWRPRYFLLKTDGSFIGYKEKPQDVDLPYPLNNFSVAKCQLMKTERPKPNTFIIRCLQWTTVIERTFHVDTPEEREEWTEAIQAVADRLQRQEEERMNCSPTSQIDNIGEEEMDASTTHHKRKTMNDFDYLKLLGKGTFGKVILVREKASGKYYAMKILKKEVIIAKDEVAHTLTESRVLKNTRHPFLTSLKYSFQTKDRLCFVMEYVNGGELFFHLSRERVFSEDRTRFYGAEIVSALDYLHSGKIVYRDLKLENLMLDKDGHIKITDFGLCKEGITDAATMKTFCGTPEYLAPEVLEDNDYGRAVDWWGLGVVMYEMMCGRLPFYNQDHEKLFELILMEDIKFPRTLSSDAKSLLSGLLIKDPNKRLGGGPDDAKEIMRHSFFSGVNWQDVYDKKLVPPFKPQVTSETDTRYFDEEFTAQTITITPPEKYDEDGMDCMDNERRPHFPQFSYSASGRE

[7] = target: T2, Calcium/calmodulin-dependent protein kinase type IV (Homo sapiens) (UniProt Q16566); experiment: Selectivity interaction (KinomeScan (DiscoverX)) EUB0000618a CAMK4; details: at 10 µM
T2 sequence (whole entry): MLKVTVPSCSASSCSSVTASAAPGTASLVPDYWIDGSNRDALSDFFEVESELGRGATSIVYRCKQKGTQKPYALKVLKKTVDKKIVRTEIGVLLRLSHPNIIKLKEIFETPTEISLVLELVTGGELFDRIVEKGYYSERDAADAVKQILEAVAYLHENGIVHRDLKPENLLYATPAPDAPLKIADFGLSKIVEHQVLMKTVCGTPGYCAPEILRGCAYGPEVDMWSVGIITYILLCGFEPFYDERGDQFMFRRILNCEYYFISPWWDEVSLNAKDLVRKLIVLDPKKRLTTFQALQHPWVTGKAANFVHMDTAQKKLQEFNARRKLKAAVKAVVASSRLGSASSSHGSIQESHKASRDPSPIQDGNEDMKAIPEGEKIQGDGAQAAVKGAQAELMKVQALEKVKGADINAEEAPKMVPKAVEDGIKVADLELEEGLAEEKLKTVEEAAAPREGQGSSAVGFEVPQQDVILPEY

[8] = target: T3, Cyclin-dependent kinase 11A (Homo sapiens) (UniProt Q9UQ88); experiment: Selectivity interaction (KinomeScan (DiscoverX)) EUB0001619a CDK11A; details: at 1 µM
T3 sequence (whole entry): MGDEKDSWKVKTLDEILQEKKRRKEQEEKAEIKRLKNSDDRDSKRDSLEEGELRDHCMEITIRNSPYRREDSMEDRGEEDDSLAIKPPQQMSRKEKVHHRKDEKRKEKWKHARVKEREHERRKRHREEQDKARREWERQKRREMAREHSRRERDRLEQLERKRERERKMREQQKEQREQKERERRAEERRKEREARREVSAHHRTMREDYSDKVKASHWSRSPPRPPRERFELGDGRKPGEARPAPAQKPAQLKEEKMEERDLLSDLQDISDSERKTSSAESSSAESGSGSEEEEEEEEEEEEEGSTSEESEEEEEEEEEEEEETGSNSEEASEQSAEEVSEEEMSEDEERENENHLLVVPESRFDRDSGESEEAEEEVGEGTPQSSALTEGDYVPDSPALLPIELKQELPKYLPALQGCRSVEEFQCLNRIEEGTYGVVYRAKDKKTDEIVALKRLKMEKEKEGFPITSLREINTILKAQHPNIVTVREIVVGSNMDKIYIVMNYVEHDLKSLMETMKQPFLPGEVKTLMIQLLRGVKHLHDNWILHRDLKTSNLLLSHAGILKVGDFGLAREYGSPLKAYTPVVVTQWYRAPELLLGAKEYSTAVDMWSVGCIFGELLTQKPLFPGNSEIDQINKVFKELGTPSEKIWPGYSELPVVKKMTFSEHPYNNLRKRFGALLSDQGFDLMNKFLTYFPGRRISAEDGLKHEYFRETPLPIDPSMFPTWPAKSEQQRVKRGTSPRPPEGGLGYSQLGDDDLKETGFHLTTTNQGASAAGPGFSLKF

Sequence of Histone-lysine N-methyltransferase KMT5B (Homo sapiens) (Q4FZB7 whole entry, looked up): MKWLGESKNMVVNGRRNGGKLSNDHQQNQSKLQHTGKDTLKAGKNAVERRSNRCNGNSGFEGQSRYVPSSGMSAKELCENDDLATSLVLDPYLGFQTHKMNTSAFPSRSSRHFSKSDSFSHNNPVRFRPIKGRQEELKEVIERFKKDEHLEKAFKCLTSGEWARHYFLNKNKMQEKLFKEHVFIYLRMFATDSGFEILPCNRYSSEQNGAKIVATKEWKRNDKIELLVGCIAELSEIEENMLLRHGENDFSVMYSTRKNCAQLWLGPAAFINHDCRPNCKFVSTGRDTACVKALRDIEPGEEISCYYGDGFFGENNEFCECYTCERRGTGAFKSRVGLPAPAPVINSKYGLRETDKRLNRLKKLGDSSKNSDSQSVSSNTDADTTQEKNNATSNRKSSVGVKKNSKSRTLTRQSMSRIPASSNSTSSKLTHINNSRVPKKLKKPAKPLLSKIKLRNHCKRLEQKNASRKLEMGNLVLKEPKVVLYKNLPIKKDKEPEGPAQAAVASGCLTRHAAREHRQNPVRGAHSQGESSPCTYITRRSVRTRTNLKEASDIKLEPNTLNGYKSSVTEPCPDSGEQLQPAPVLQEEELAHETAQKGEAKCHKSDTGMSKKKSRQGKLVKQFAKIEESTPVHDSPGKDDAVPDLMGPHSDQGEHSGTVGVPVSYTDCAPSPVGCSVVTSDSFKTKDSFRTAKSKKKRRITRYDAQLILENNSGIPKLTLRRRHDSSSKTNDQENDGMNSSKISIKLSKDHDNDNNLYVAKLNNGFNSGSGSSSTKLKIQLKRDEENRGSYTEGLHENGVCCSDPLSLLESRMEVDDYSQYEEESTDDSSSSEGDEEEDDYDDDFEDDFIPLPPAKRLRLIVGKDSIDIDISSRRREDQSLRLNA

## COCCN1CCC(c2cc(CN(C)C(=O)c3cccc(Oc4ccccc4)c3)ccn2)CC1
[1]; at 1 µM
  % activity: > 95%
[1]; at 10 µM
  % activity: > 90%

## COc1cc(N(C)c2ccnc3ccc(C(F)(F)F)cc23)cc(OC)c1OC
[2]
  % binding: 80%

## CCC(=O)N1CCN(c2ccc(-n3c(=O)ccc4cnc5ccc(-c6cnc7ccccc7c6)cc5c43)cc2C(F)(F)F)CC1
[3]
  % of control: 77%

## C=CC(=O)Nc1cccc(C(=O)Nc2ccc(Nc3cc(-c4[nH]c(SC)nc4C)ccn3)cc2)c1
[4]; at 1 µM
  % of control: 89%
[4]; at 5 µM
  % of control: 86%

## O=C(NOC[C@H](O)CO)c1ccc(F)c(F)c1Nc1ccc(I)cc1F
[5]
  % of control: 91%

## COCC(=O)NC/C=C/c1ccc2ncnc(Nc3ccc(Oc4ccc(C)nc4)c(C)c3)c2c1 [CP-724714]
[6]
  % of control: 100%

## O[C@H]1CC[C@H](Nc2ncc3nc(Nc4c(F)cc(F)cc4F)n([C@H]4CCOC4)c3n2)CC1
[7]
  % of control: 87%

## N#Cc1cccc(-c2c[nH]c3ncnc(N4CCOCC4)c23)c1
[8]
  % of control: 48%
